“Also recorded” adds a separate entry of the source.
Key:
Assay type in all cases: cell-based, human
[1] = system: NHLF cells; experiment: ROS measurements (H2DCF-DA imaging); details: 1 hr, cell-by-cell imaging, FIG. 3A/3B
In short: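 Secondary-passage NHLF cells (2,000/well, overnight) loaded 30 min with H2DCF-DA, 10 μM ferric ammonium citrate and Hoechst, washed, then treated with compound in FBM-2 medium 1 h at 37 °C, 5% CO2. ROS quantified by automated fluorescence imaging of DCF signal.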

[2] = system: HMOX1; experiment: HMOX1 protein expression by immunofluorescence (primary screen, high-content imaging); details: NHLF cells
Procedure: NHLF cells were grown to 80% confluency and harvested by washing once with HEPES and then trypsinizing. Equal numbers ([…]) of NHLF cells were plated in 384 well optilux tissue culture (BD) plates. Cells were incubated overnight in FGM-2 medium prior to exposure to compound. Cells were treated with either DMSO or compound for 16 h. Cells were wash 2× with 1×PBS and fix with 4% Paraformaldyhyde for 15 min. The fixed cells were then permeablized with 0.1% Triton X-100 and blocked with 5% BSA in 1× PBS 0.05% Tween-20 for 15 min. HO-1 antibody (abcam) was used for immunostaining at 1:300 dilution in 1% BSA in 1×PBS for 1 hr. Cells were washed 2× with 1×PBS and secondary antibody goat anti-mouse Alexa 488 1:400 dilution (Invitrogen); Hoechst 1:2000 (Invitrogen) in 1% BSA in 1×PBS for 1 hr. The plate was washed 5× with 1×PBS and read at Hoechst Excitation (“Ex.”) 360 Emission (“Em.”) 535; Alexa 488 Ex. 480 Em. 535 using GE InCell 1000. Results were analyzed using GE InCell Analyzer software and represented as the fold change above DMSO treated cells.
A rapid, quantitative screening assay to detect HMOX1 levels in cells based on an immunofluorescent microscopy using an automated high-content imaging system was developed. […] The data are arrayed as in an IR chart with a calculated mean value for the plate and the 3-sigma upper and lower-confidence limits (UCL and LCL). […]

[3] = system: GADD45A; experiment: mRNA expression (Quantigene Plex) in NHLF cells: GADD45A; details: Table 5, 6 h, mRNA normalized to GAPDH, above DMSO treated cells
Procedure: Secondary growth of NHLF cells were used for all assays. Cell were thawed and then placed into culture in T225 flasks. The cells were grown to 80% confluency and harvested by washing once with HEPES buffered saline solution and then trypsinizing. Equal numbers (7×10^3 cells per well) of NHLF cells were plated in 96 well tissue culture plates (Corning). Cells were incubated overnight in FGM-2 medium prior to exposure to compound. Cells were treated with either DMSO or a compound as described below for 6 h. Preparation of cell lysates was carried out according to instructions using the Quantigene Reagent system 2.0 protocol (Panomics). mRNA induction was detected from cell lysate using the Quantigene Plex 2.0 Assay Kit (Panomics) on the Luminex platform (BIO-RAD). Expression of GAPDH mRNA was used as the internal control for the Quantigen Plex 2.0 Assay. The data in Tables 5 and 6 represents the fold change of target mRNA expression, normalized to control values, above DMSO treated cells.

EC50 ([2]; Homo sapiens, immunofluorescence, dose response, FIG. 2, read-out: effective potency (HMOX1 induction)): < 1000 nM
GADD45A (fold induction) [3]: 0.89 fold induction
Compound: O=C(Nc1ccc2cn[nH]c2c1)c1ccc2[nH]c(Nc3nc4ccccc4s3)nc2c1 [Compound 13, 2-(Benzothiazol-2-ylamino)-1H-benzoimidazole-5-carboxylic acid (1H-indazol-6-yl)-amide]
ROS production (in words) [1]: modestly elevated ROS production; also recorded: little increase in ROS production
averaged signal intensity for HMOX1 staining versus upper confidence limit (UCL) ([2]; primary screen, FIG. 1): significantly greater than the upper confidence limit

Source: patent US9707239B2, “Compounds that modulate oxidative stress” (vTv Therapeutics LLC, priority 2011, dated 2017)
